Test results: patent US20220401664A1, “FLUID DELIVERY DEVICES AND METHODS” (Droplette Inc., priority 2015, published 2022)
Read-outs that look alike come from different tables or passages of the source.

Legend:
[1] = for Droplette Hydration, improvement over starting hydration: left hand
Experimental: In yet another experiment, 4 human subjects volunteered to have about 50 μL of sterile distilled water sprayed into their hand and have hydration levels measured with a Corneometer CM825 device. Skin was visually inspected for any discoloration at the time of study and after 24 hours, and subject comfort was assessed and self-reported. A pen was used to draw circles denoting a delivery site (having a circle diameter of about 1.5 cm) on the backs of the right and left hands. Hydration in the circled regions for both the right and left hands was assessed at the start with a Corneometer CM 825. A device having a configuration as disclosed in FIGS. 1-14 was used for about 30 seconds to deliver about 50 μL sterile water to the left hand of each subject. After about 5 seconds of rest, the hand was blotted dry with a tissue. About 100 μL of sterile water was topically applied to the back of the right hand of each subject in the circled region and spread to cover that area. After about 5 seconds of rest, that hand was blotted dry with a tissue.

[2] = tested on: E. Coli DH5-α; test: Bacterial inhibition by antibiotics passed through the device (OD 600 nm); type: cell-based; settings: azithromycin 5 mg/mL, vancomycin 15 mg/mL, streptomycin 20 mg/mL, 6 hours, 37°, versus same antibiotics not passed through device
Experimental: Inhibition of bacterial strain E. Coli DH5-α with antibiotics dissolved in deionized water was tested by passing the antibiotics and water through the device. The three antibiotics tested were azithromycin (5 mg/mL), vancomycin (15 mg/mL), and streptomycin (20 mg/mL). As a positive control, the same antibiotics (not passed through the device) were tested. Additional controls included deionized water, and deionized water passed through the device. After addition of 100 μl of antibiotics or deionized water into 8 mL of LB broth, 100 μl of bacterial stock at 0.5 OD at 600 nm was added. The experiment was performed with 4 biological replicates and 3 technical replicates, providing a sample size of n=12. Samples were incubated at 37° centigrade and 200 RPM in a shaker for 6 hours and then optical density was measured at 600 nm in a spectrophotometer.

[3] = for depth of dye penetration: delivered with the device held 1 cm away from skin; for dye penetration: standard aerosol (piezoelectric transducer only) held 1 cm away
Source text: A device having a configuration as disclosed in FIGS. 1-14 was used in a test along with a standard aerosol generated using only the piezoelectric transducer to compare dye penetration between the device and the aerosol. A mix of water and brilliant blue dye with a molecular weight of 792 Daltons was used to test penetration. Both the aerosol and the device were held 1 cm away from skin, and the solution was sprayed onto chicken and porcine skin-covered tissue. The skin and tissue were cut and dye penetration was measured. […] In between a range of 500 to 800 Daltons, there are a number of antibiotics, such as those used to treat skin and soft tissue infections. One example is ceftaroline, which is an antibiotic for Methicillin-resistant Staphylococcus aureus.

## O [water]
[1]; 4 subjects, young and mature skin
  water delivered into skin, device compared to topical application: significantly more water was delivered
[1]; Subject 3, 1 Hour: Resting, about 50 μL sterile water by device
  Droplette Hydration, improvement over starting hydration: 58% improvement over
[1]; Subject 3, 1 Hour: Resting, about 100 μL sterile water topically, right hand
  Topical Hydration, improvement: 0% improvement (back
[1]; Subject 3, 2 Hours: had eaten lunch and consumed 2 cups of water, device
  Droplette Hydration, improvement over starting hydration: 55% improvement over
[1]; Subject 3, 2 Hours: had eaten lunch and consumed 2 cups of water, topical, right hand
  Topical Hydration, improvement over baseline: 11% improvement over

## CN[C@H](CC(C)C)C(=O)N[C@H]1C(=O)N[C@@H](CC(N)=O)C(=O)N[C@H]2C(=O)N[C@H]3C(=O)N[C@H](C(=O)N[C@H](C(=O)O)c4cc(O)cc(O)c4-c4cc3ccc4O)[C@H](O)c3ccc(c(Cl)c3)Oc3cc2cc(c3O[C@@H]2O[C@H](CO)[C@@H](O)[C@H](O)[C@H]2O[C@H]2C[C@](C)(N)[C@H](O)[C@H](C)O2)Oc2ccc(cc2Cl)[C@H]1O [vancomycin]
[2]
  bacterial inhibition after being passed through the device: retained their native function

## [H]/N=C(/N)N[C@H]1[C@H](O)[C@@H](O)[C@H](O[C@@H]2O[C@@H](C)[C@](O)(C=O)[C@H]2O[C@@H]2O[C@@H](CO)[C@H](O)[C@@H](O)[C@@H]2NC)[C@@H](N/C(N)=N\[H])[C@@H]1O [streptomycin]
[2]
  bacterial inhibition after being passed through the device: retained their native function

## CC[C@H]1OC(=O)[C@H](C)[C@@H](O[C@H]2C[C@@](C)(OC)[C@@H](O)[C@H](C)O2)[C@H](C)[C@@H](O[C@@H]2O[C@H](C)C[C@H](N(C)C)[C@H]2O)[C@](C)(O)C[C@@H](C)CN(C)[C@H](C)[C@@H](O)[C@]1(C)O [azithromycin]
[2]
  bacterial inhibition after being passed through the device: retained their native function

## brilliant blue [brilliant blue dye]
[3]; chicken tissue
  depth of dye penetration: 1.23 cm
[3]; porcine tissue
  depth of dye penetration: 1 cm
[3]; chicken skin
  dye penetration: did not penetrate either animal skin to any noticeable depth
[3]; porcine skin
  dye penetration: did not penetrate either animal skin to any noticeable depth
